The text below walks through data of patent US20120165576A1, “USE OF ERYTHRITOL FOR THE PREVENTION OR TREATMENT OF HYPERTENSION” (priority 2009, published 2012).

Data set [1] has as its system sections of thoracic aorta (aortic rings). As to the kind of experiment: Aorta reactivity measurements: isolated aortic rings of rats after 21 days of erythritol in drinking water. It is filed as in vivo, Wistar rats. Conditions: for CAR: relaxation induced by 100 μM carbachol / PE: Contraction induced by 10 μM phenylephrine / SNP: Relaxation induced by 100 μM SNP after stable response to 100 μM carbachol / Tot. relax: Relaxation induced by 100 μM carbachol followed by 100 μM SNP / SNP fraction: Contribution of 100 μM SNP to the total relaxation: 1 g erythritol/kg/day in drinking water, 21 days, mean ± SEM.

The subject of data set [2] is red blood cell suspension. As to the kind of experiment: AAPH-induced hemolysis of a red blood cell suspension. Type of data set: cell-based. Conditions: erythritol 0-50 mM, AAPH 50 mM, 37° C., FIG. 3.
Data set [3] relates to manganese superoxide dismutase (SOD2). As to the kind of experiment: SOD2 expression in endothelial cells by qPCR. As to conditions: human umbilical vein endothelial cells (CRL-1730), erythritol 5 mM, 24 hours. It is filed as cell-based. Here is the method: The exposure of endothelial cells to erythritol results in a increase in manganese superoxide dismutase (SOD2) transcription (FIG. 4). Cultured human umbilical vein endothelial cells (CRL-1730, which are available from ATCC) were incubated under standard conditions with erythritol (5 mM, 24 hours). Exposure to erythritol induced or stimulated a 9.4 fold increase in the expression of SOD2 as determined by qPCR (FIG. 4).
After incubation, RNA was isolated from Qiazol suspended cells according to the manufacturer's protocol and quantified using a nanodrop. Reverse transcription reaction was performed using 500 ng of total RNA, which was reverse-transcribed into cDNA using iScript™ cDNA synthesis kit. Next, real time PCR was performed with a BioRad MyiQ iCycler Single Color RT-PCR detection system using Sensimix™ Plus SYBR and Fluorescein, 5 μl diluted (10×) cDNA, and 0.3 μM primers in a total volume of 25 μl. PCR was conducted as follows: denaturation at 95° C. for 3 minutes, followed by 40 cycles of 95° C. for 15 seconds and 60° C. for 45 seconds. After PCR a melt curve (60-95° C.) was produced for product identification and purity. β-actin was included as internal control. Data were analysed using the MyIQ software system (Biorad) and were expressed as relative gene expression (fold change) using the 2^ΔΔCt method.

The conditions of data set [4]: cited from earlier work.
For data set [5] the following is noted: cited from earlier work. This is another data set of the same source.
[6] abbreviates: group DE: STZ diabetic rats, N = 4.
The mark [7] stands for this setting: group NE: normoglycemic rats, N = 5.
Where [8] appears, read: clinical testing, oral consumption.

Entries after “also recorded” stand apart in the source; their conditions may differ. Like-named read-outs stand apart in the source and are kept apart here. Marks after values point to notes of the source that are not given here.

In the case of `OCC(O)C(O)CO` (stereo not shown) [erythritol, 1,2,3,4-butanetetrol], in data set [1] (diabetic rats consuming erythritol (DE), 1 g/kg/day, compared with normoglycemic rats), the “Relaxation response of aortic rings to carbachol (in words)” value is “essentially the same as the relaxation response of normoglycemic rats; also recorded: identical to that observed in the normoglycemic rats; also recorded: higher and at the same level as found in the aortic rings of the rats of groups N and NE”. Also, in data set [1] (setting [6]), the “CAR: relaxation induced by 100 μM carbachol” value is given as 0.61 ± 0.07 g, the “PE: Contraction induced by 10 μM phenylephrine” value amounted to 0.60 ± 0.07 g, the “SNP: Relaxation induced by 100 μM SNP after stable response to 100 μM carbachol” value is reported as 0.14 ± 0.03 g and the “Tot. relax: Relaxation induced by 100 μM carbachol followed by 100 μM SNP” value is reported as 0.75 ± 0.09 g. Further, in data set [1] (group DE: STZ diabetic rats, N = 4, p < 0.05 compared to D), the “SNP fraction: Contribution of 100 μM SNP to the total relaxation” value is 17.8 ± 3.1^b %. Besides, in data set [1] (setting [7]), the “CAR: relaxation induced by 100 μM carbachol” value was determined as 0.60 ± 0.07 g, the “PE: Contraction induced by 10 μM phenylephrine” value is 0.70 ± 0.06 g, the “SNP fraction: Contribution of 100 μM SNP to the total relaxation” value is on record as 24.7 ± 5.5^ % and the “SNP: Relaxation induced by 100 μM SNP after stable response to 100 μM carbachol” value amounted to 0.21 ± 0.06 g. The “Tot. relax: Relaxation induced by 100 μM carbachol followed by 100 μM SNP” value in data set [1] (setting [7]) amounted to 0.81 ± 0.09 g. Moreover, in data set [1] (normoglycemic rats consuming erythritol (NE), 1 g/kg/day, FIG. 1), the “Effect on carbachol concentration-response curve (in words)” value is reported as “did not have a significant effect”. In data set [2], the “Inhibition of AAPH-induced hemolysis (in words)” value is listed as “inhibited hemolysis in a concentration-dependent manner” and the “Lagtime (t50, time to reach 50% hemolysis) of AAPH-induced hemolysis (in words)” value was “concentration-dependently shifted the curve to the right; also recorded: concentration-dependent increase”. The “Increase in the expression of SOD2 as determined by qPCR” value in data set [3] amounted to 9.4 fold. Besides, the “Time until excretion with the urine is complete” value in data set [4] (after administration) is reported as “about 3 days”. The “Systemic metabolism (in words)” value in data set [4] (in vivo) is “not systemically metabolized”. Besides, the “Absorption from the gut (in words)” value in data set [4] (oral) is “rapidly and virtually completely absorbed”. In data set [5] (setting [8]), the “Well tolerated bolus (single) dose” value is given as “up to 50 grams” and the “Well tolerated daily dose” value is “up to 80 grams”. The “Well tolerated bolus (single) dose” value in data set [5] (clinical testing, oral consumption, listed as Erythritol) is no more than 50 grams. Also, the “Digestive side-effects (in words)” value in data set [5] (even after consumption of large quantities) is “no digestive side-effects”.
